Read-outs that look alike come from different tables or passages of the source.
How the values were obtained:
rabbits = conditions: cited from earlier work
monkeys = conditions: Curr. Eye Res. 2, 281-288; cited from earlier work
Cebus apella monkeys = test: Intraocular pressure (IOP) measurement after topical unilateral application to the eye of monkeys; assay type: in vivo; conditions: female Cebus apella monkeys, 50ul aliquots, doses 0.165, 0.5 and 1.65 mg, IOP at 0.5, 1, 2, 3, 4 and 5 hours post drug, compared to vehicle alone
Experimental: Male, albino New Zealand rabbits, and female Cebus apella monkeys are used in the example. Rabbits are used primarily to screen for undue ocular toxicity of 2-(N-propyl-N-2-phenylethylamino)-5-hydroxytetralin (active compound) before conducting experiments in monkeys.
A racemic mixture of 2-(N-propyl-N-2-phenylethylamino)-5-hydroxytetralin (active compound) is dissolved in distilled water (vehicle or carrier) on the day of the experiment. Solutions are administered in a masked manner, that is, solutions are prepared by a person that was neither involved in drug administration nor measurement of intraocular pressure (IOP) and pupil diameter (PD). The solution of the active compound is applied unilaterally with the contralateral (fellow) eye receiving vehicle only. Five monkeys are treated bilaterally with vehicle; one to two vehicle-treated monkeys are included each time a different dose of the active compound is used. Doses of active compound tested are: 0.165, 0.5 and 1.65 mg.
After taking two baseline (0 time) measurements, aliquots (50ul) of the solution of active compound and/or vehicle, only, are administered topically. Subsequently, IOP measurements are made at 0.5, 1, 2, 3, 4 and 5 hours post drug.

[1] = rabbits, Curr. Eye Res. 2, 281-288 and 3, 307-314

| SMILES | intraocular pressure of rabbits (rabbits; [1]) | intraocular pressure of monkeys (monkeys) | intraocular pressure (Cebus apella monkeys) | intraocular pressure of rabbits (rabbits; rabbit, in vivo) |
| --- | --- | --- | --- | --- |
| CN1C[C@H](CC#N)C[C@@H]2c3cccc4[nH]c(Cl)c(c34)C[C@H]21 [lergotrile] | lower the intraocular pressure of rabbits | lowered the intraocular pressure of monkeys | – | – |
| CCCN(CCc1ccccc1)C1CCc2c(O)cccc2C1 (racemic) [active compound, 2-(N-propyl-N-2-phenylethylamino)-5-hydroxytetralin] | – | – | effectively lower the intraocular pressure | – |
| CCCN1C[C@H](CSC)C[C@@H]2c3cccc4[nH]cc(c34)C[C@H]21 [pergolide] | lower the intraocular pressure of rabbits | lowered the intraocular pressure of monkeys | – | – |
| CC(C)C[C@H]1C(=O)N2CCC[C@H]2[C@]2(O)O[C@](NC(=O)[C@@H]3C=C4c5cccc6[nH]c(Br)c(c56)C[C@H]4N(C)C3)(C(C)C)C(=O)N12 [Bromocriptine] | – | – | – | lower the intraocular pressure of rabbits |
